# Measurements reported in the METLIN SMRT retention time set (Domingo-Almenara et al. 2019).
# Experiment: gradient 5% acetonitrile 3 min, to 50% in 2 min, to 85% in 15 min, held 3 min, 100 µL/min
# Settings: column: Zorbax Extend-C18 2.1 x 50 mm; eluents: water / acetonitrile, 0.1% formic acid
# Procedure, shortened: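 Mixtures of ~100 pure standards were chromatographed on a Zorbax Extend-C18 column (2.1 × 50 mm, 1.8 μm) at 100 μL/min using water and acetonitrile, each with 0.1% formic acid. Detection used a quadrupole time-of-flight mass spectrometer in positive and negative ionization mode, and data collection spanned 3 months. Retention time was obtained from adduct peaks picked computationally and each checked manually.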
row,SMILES,RP-LC retention time
1,CCOC(=O)c1cccc(NC(=O)Cn2ccc3ccc(-c4nnc(CC)o4)cc32)c1,910 s
2,CCN(CCN(C)C)c1ccc(C(=O)O)cc1NS(=O)(=O)c1ccccc1,610 s
3,Cc1c(-c2ccnc(N3CCN(Cc4ccccc4)CC3)n2)cnc2nc(-c3ccccc3)nn12,713 s
4,O=C(CCc1c(-c2ccc(Br)cc2)nc2ccccn12)NC1CC1,610 s
5,CN(CCc1noc(-c2ccc(Cl)cc2)n1)C(=O)Nc1ccccc1F,952 s
6,O=C(c1ccc(F)cc1Cl)N1CCC2(CC1)NC(=O)N(CCOc1ccccc1)C2=O,764 s
7,CN(C)C(=O)c1ccc2c(c1)nnn2CCNC(=O)Nc1ccc(F)cc1,640 s
8,Cc1ccc(C(=O)N2CCN(c3nnc4cccc(C)n34)CC2)cc1C,705 s
9,CC(=O)N1CCCc2cc(S(=O)(=O)CCC(=O)Nc3cc(C)ccc3C)ccc21,758 s
10,CC(C)(C)c1ccc(S(=O)(=O)N2CCC3(CC2)NCCN=C3NCc2ccccc2)cc1,854 s
11,COc1ccccc1CN1CCC(CNS(=O)(=O)c2ccc3c(c2)CCCC(=O)N3)CC1,566 s
12,Cn1c(SCC(=O)c2ccccc2OC(F)F)nc2ccccc21,808 s
13,O=C(c1cncnc1)N1CCCn2ccnc2C1C1CCCC1 (stereo not given),572 s
14,COc1cccc(CNC(=O)C2CCCN(c3ncnc4c3oc3ccccc34)C2)c1 (stereo not given),734 s
15,COCCn1cc2c3c(cccc31)CN(C(=O)c1cccc(Cl)c1)CC2,960 s
16,O=C(Cc1cccs1)Nc1cccc(OCc2nnc(-c3ccccc3)o2)c1,905 s
17,CC(Oc1cccc(Cl)c1)c1nc(-c2ccc3ncn(C)c3c2)no1 (stereo not given),827 s
18,CCCN(CCC)[C@@H]1CCc2ccc(O)cc2C1,671 s
19,CCc1cccc(NC(=O)Cn2nc(C(=O)N3CCOCC3)c3ccccc32)c1,840 s

row,SMILES,RP-LC retention time
1,CCOc1ccc(CC(=O)NC2CCN(c3cc(-c4ccccc4)[nH]n3)C2)cc1OCC (stereo not given),721 s
2,CCCCN1C(=O)C(CC(=O)NCCC)Sc2ncccc21 (stereo not given),750 s
3,CNC(=O)N1CCC(OC(C)=O)CC1,583 s
4,Cn1c(CCNC(=O)c2ccc(F)c(F)c2)nc2cccnc21,617 s
5,O=C(Cc1ccc(NC(=O)CCS(=O)(=O)c2ccccc2)cc1)NCc1cccs1,701 s
6,CN1C(=O)C2CCCCN2c2ccc(C(=O)NCCc3ccc(Cl)cc3)cc21 (stereo not given),971 s
7,CC(C)n1cnnc1C1CCN(C(=O)Cc2c[nH]c3ccccc23)CC1,626 s
8,O=C(NCc1nc2ccccc2c(=O)n1-c1ccc(F)cc1)Nc1ccc(Cl)c(C(F)(F)F)c1,1040 s
9,CCCn1ccc2sc(C)c(C(=O)N3CCN(c4ccccn4)CC3)c2c1=O,593 s
10,COc1ccc(OC)c(Nc2c(-c3ccc(SC)cc3)nc3cnccn23)c1,923 s
11,COc1cccc(-c2nc(-c3ccc(-n4ccnc4)nc3)no2)c1,736 s
12,Cc1cccc(NC(=O)NCC(c2cccnc2)c2c[nH]c3ccccc23)c1 (stereo not given),673 s
13,COc1ccc(NS(=O)(=O)c2cc(-c3nc(C)c(C(=O)N4CCCC4)s3)n(C)c2)cc1OC,727 s
14,N#C/C(=C\c1ccc[nH]1)C(=O)c1ccccc1,892 s
15,CC(NC(=O)c1ccc(NC(=O)C2CC2)cc1N1CCCCCC1)c1ccccn1 (stereo not given),633 s
16,O=C1CCCc2cc(S(=O)(=O)N3CCC(C(=O)NCc4ccc(F)cc4)CC3)ccc2N1,724 s
17,O=C(COc1ccc(Br)cc1)NCC(c1cccs1)N1CCCC1 (stereo not given),672 s
18,O=C(Nc1nccs1)C1CCCN(c2ccc3cc(S(=O)(=O)N4CCCC4)ccc3n2)C1 (stereo not given),693 s

# The next lines start with the values.
row,RP-LC retention time,SMILES
1,815 s,Cc1cc(C)c(S(=O)(=O)N2CCC3(CC2)NCCN=C3NCc2ccccc2C)cc1C
2,982 s,CC1CCN(C(=O)c2ccc3ccnc(N4CCN(c5ccc(Cl)cc5)CC4)c3c2)CC1
3,614 s,O=C(NCc1nc2ccccc2n1CC(=O)N1CCCCC1)c1ccco1
4,568 s,O=C(NCc1ccco1)N1CCOCC1
5,889 s,NS(=O)(=O)c1cccnc1Nc1cccc(Br)c1
6,729 s,O=C(Nc1ccc(F)c(Cl)c1)c1nc2ncccn2n1
7,996 s,Cc1cc(C)cc(NS(=O)(=O)c2ccc(-c3nnc(C4CCC4)o3)o2)c1
8,1040 s,COc1ccc(-c2noc(C3CC(=O)N(c4cc(C)cc(C)c4)C3)n2)cc1 (stereo not given)
9,756 s,COc1ccc2c(ccn2CC(=O)N[C@@H](CC(C)C)C(=O)O)c1
10,629 s,O=C(NCC1CC1)c1ccc2nc(-c3ccccc3)cn2c1
11,915 s,O=C(NCc1ccc(-c2noc(/C=C/c3ccccc3)n2)s1)C1CC1
12,677 s,COc1ncccc1CNC(=O)COc1ccccc1
13,716 s,CC(C)n1c(=O)sc2cc(S(=O)(=O)N3CCC(C(=O)N(C)C4CCCCC4)CC3)ccc21
14,606 s,COc1cc2c(cc1OC)C1C(C(=O)N3CCN(c4ccccn4)CC3)c3ccccc3C(=O)N1CC2 (stereo not given)
15,700 s,O=C(c1nnc(-c2ccc(S(=O)(=O)N3CCCCC3)cc2)o1)N1CCN(C2CCCCC2)CC1
16,731 s,COCC(=O)N1CC(c2nc(-c3ccc(F)cc3)no2)C2(CCOCC2)C1 (stereo not given)
17,862 s,CCCNC(=O)CN1C(=O)C2CCCCN2c2ccc(S(=O)(=O)N(CC)CC)cc21 (stereo not given)
18,1230 s,Cc1ccc(Nc2c(-c3ccc(Br)cc3)nc3cnccn23)c(Br)c1
19,864 s,CCCN(CC1CCOC1)C(=O)Nc1cccc(CC)c1 (stereo not given)
20,727 s,O=C(Cn1nc2c3ccc(Cl)cc3ncn2c1=O)Nc1ccccc1
21,630 s,Cc1ccc(C)c(C(=O)NCc2ccc(-n3ccnc3)cc2)c1
22,605 s,O=C(CC1CCN(C(=O)c2ccc3oc(C4CC4)nc3c2)CC1)NCc1ccccn1
23,593 s,Cc1ccc(C)c(N2CCN(Cc3nc4nc(C)cc(N5CCN(C)CC5)n4n3)CC2)c1
24,749 s,O=C(NCC1CCN(c2ncccn2)CC1)c1cccc(C(F)(F)F)c1
25,1280 s,COc1ccc(-c2csc(NC(=O)Nc3ccc(Cl)c(Cl)c3)n2)cc1Br
26,802 s,Cc1cc(OCC(=O)Nc2ccc(C#N)cc2)nc(N2CCN(c3ccccc3)CC2)n1
27,798 s,COc1cccc(CC(=O)N2CCC3(CC2)NC(=O)c2cc(C)ccc2N3C)c1

row,RP-LC retention time,SMILES
1,1270 s,CC(C)CN1CCCCc2cc(C(=O)NC(C)(C)C)sc21
2,627 s,CC(C)NC(=O)N1CCCC(CCc2nnc(-c3cnccn3)o2)C1 (stereo not given)
3,664 s,CCN(CC)C(=O)COc1ccc(NC(=O)C2CC2)cn1
4,967 s,Cc1cc2nn(CC(=O)Nc3ccccc3F)c(=O)n2c(Nc2ccc(F)cc2)n1
5,936 s,CC(=O)Nc1cccc(-c2nc(-c3ccc4c(c3)oc(=O)n4C(C)C)no2)c1
6,559 s,CCN1CCN(CCNC(=O)C2CCN(c3nc4cccnc4s3)CC2)CC1
7,625 s,Cc1ccc(NC(=O)CN2C(=O)COc3ccc(C(=O)N4CCCC4)cc32)nc1
8,680 s,CC(NC(=O)Cc1ccc(Cl)cc1)C(=O)Nc1nc2ccccc2[nH]1 (stereo not given)
9,588 s,CC(=O)c1ccc(S(=O)(=O)N2CCCC(C)(C(=O)NCc3ccccc3C)C2)cc1 (stereo not given)
10,1290 s,CCCCCn1c(=O)c2ccccc2n(Cc2nc(-c3ccc(F)c(Cl)c3)no2)c1=O
11,610 s,CN(C)c1ccc(CNC(=O)c2cc3n(n2)CC(C)(C(=O)NCc2ccc(F)cc2)N(C)C3=O)cc1 (stereo not given)
12,888 s,O=C(c1cnn(-c2ccccc2)n1)N1CCC(c2nnc(-c3ccc(F)cc3)o2)CC1
13,528 s,O=C(NC1CC1)[C@@H]1C[C@H](Oc2cccnc2)CN1C(=O)c1ccc2ncccc2c1
14,757 s,COc1cccc(CC(=O)N2CCCC2c2cc(C)on2)c1 (stereo not given)
15,848 s,CCC(=O)c1cn(CC(=O)NC(C)c2ccc3c(c2)OCCCO3)c2ccccc12 (stereo not given)
16,957 s,O=C(CSc1ncnc2c1[nH]c1ccc(Br)cc12)NC1CCCCC1
17,762 s,O=C(NC1CCCCC1N1C(=O)CSC1=O)c1cc(-c2ccc(F)cc2)n[nH]1 (stereo not given)
18,1060 s,COc1ccc(N2CCN(c3cc(SCC(=O)Nc4ccc(F)c(Cl)c4)ncn3)CC2)cc1
19,978 s,COc1ccc(-c2noc(C3CCCN3C(=O)C3CCCC3)n2)cc1 (stereo not given)
20,648 s,Cn1cc(-c2ccncc2)cc1C(=O)NCc1ccc(F)cc1F
21,722 s,CCn1cc(-c2ccc(F)cc2)cc1C(=O)NCc1ccccn1
22,856 s,Cc1ccc(NC(=O)N2CCC(n3c(C(F)(F)F)nc4cccnc43)CC2)cc1
23,954 s,COCCCn1c(=O)c2ccccc2n(Cc2nc(-c3ccc4c(c3)OCO4)no2)c1=O
24,755 s,COc1cc2c(cc1CNC(=O)c1ccco1)OCCCO2
25,778 s,Cc1cccc(-c2ncccc2CNS(=O)(=O)c2ccc(Cl)cc2)c1
26,811 s,CCCN(CC1CCOC1)C(=O)Nc1ccc(CC)cc1 (stereo not given)
